How the values were obtained:
[1] = MTT cytotoxicity assay on BJ fibroblasts; type: cell-based; details: human, compounds 100-0.78 μM, GA 10-0.078 μM, 2 independent experiments
Method: (§1) The NCTC clone 929 (L-929) murine fibroblast isolated from subcutaneous connective tissue (ATCC-CCL-1) were cultured in Dulbecco’s Modified Eagle Medium (DMEM) supplemented with 10 mM Hepes (pH 6.98–7.30), 1 mM l-glutamine, 100 U/ml of penicillin/streptomycin (BioWhittaker, Lonza, EuroClone SpA), and heat-inactivated 10% FBS. All cells were cultured at 37°C in a 5% CO2 humidified incubator.
(§2) The MTT method was employed as previously described to determine the viability of fibroblast cell lines. Briefly, cells seeded into 96-well plates at a density of 20,000 cells/well after overnight incubation, were exposed to selected compounds at the indicated concentrations for 24–72 h. Next they were gently washed, incubated with MTT (bromuro di 3-(4,5-dimetiltiazol-2-il)-2,5-diphenyltetrazolium) for 4 h, and processed for color detection with DMSO. The resulting purple solution was spectrophotometrically measured at 570 nm using a Varioskan Lux instrument and Skanit software (Thermo Fisher Scientific).
(§3) The optical density values for both assays were expressed as a percentage of cell survival and normalized with the value of cells treated with vehicle (DMSO), and the data were analyzed using GraphPad Prism v9.5.1 software (San Diego, CA, USA).
(§4) The cytotoxicity of the hit compounds was assessed in two independent experiments on murine L929 and human BJ fibroblasts at 24 h by MTT assays. Vehicle (DMSO) and Gambogic acid (GA) were used as negative and positive control respectively. The compounds show a safe profile on both cell lines (S2 Table).
(§5) The IC50(μM) shown was calculated by dose-response curves of the compounds on murine L929 and human BJ fibroblast cells. […] The data are representative of 2 independent experiments. Gambogic acid (GA) and vehicle (DMSO) were used as positive and negative controls respectively. (DOCX)

[2] = MTT cytotoxicity assay on L929 fibroblasts; type: cell-based, murine; details: mouse, compounds 100-0.78 μM, GA 10-0.078 μM, 2 independent experiments
Method: as §1, §2, §3, §4, §5

[3] = test system: S. mansoni eggs laid by worm pairs; test: Egg counts and egg maturation staging (Vogel and Prata) in vitro; type: cell-based, Schistosoma mansoni; details: exp4
Description: The eggs produced by worm pairs in vitro were counted at day 3 upon treatment using an inverted Leica DM IL microscope (Leica Microsystems, Wetzlar, Germany). Images were captured with a BX41 Olympus (Olympus, Tokyo, Japan) microscope and a brightfield objective 10× served by an Olympus DP23 microscope digital camera and visualized using “CellSens Entry” software (version 3.1.1). Egg maturation morphological score was assigned based on the Vogel and Prata’s staging system of egg maturation previously reported.
Therefore at 72 h upon worm pairs treatment the eggs were counted and classified by microscopic observation according to the Vogel and Prata staging system of egg maturation and grouped as immature (stages I and II), intermediate/developed (stages III–V), viable or damaged eggs.
Panel B. Histograms represent the percentages of eggs at different maturation stages +/- SEM counted at 72 h after treatment; 5–6 microscopy images of at least 3 independent experiments were analyzed. Filled red triangles indicate viable eggs at stages I–II (immature); empty red triangles indicate damaged/morphological abnormal eggs at stages I–II (immature); filled red arrows indicate viable eggs at stages III–V (intermediate/developed); empty red arrows indicate damaged/morphological abnormal eggs at stages III-V; ef, egg fragments; sp, sperm cells; oc, oocyte. Scale Bars = 200 μm.

| Structure (SMILES) | IC50 at 24 h [1] | IC50 at 24 h [2] | % Stage I/II damaged [3] | % Stage I/II viable [3] | %Stage II/IV/V viable [3] | %Stage III/IV/V damaged [3] | Stage I/II damaged counts [3] | Stage I/II viable (egg counts) [3] | Stage II/IV/V viable (egg counts) [3] | Stage III/IV/V damaged (egg counts) [3] | egg counts [3] |
| --- | --- | --- | --- | --- | --- | --- | --- | --- | --- | --- | --- |
| CC(C)=CCC[C@]1(C)C=Cc2c(O)c3c(c(CC=C(C)C)c2O1)O[C@]12C(=C[C@@H]4C[C@H]1C(C)(C)O[C@@]2(C/C=C(/C)C(=O)O)C4=O)C3=O [GA, Gambogic acid, reference compound] | 350 nM | 500 nM |  |  |  |  |  |  |  |  |  |
| CC(/C=C/C(=O)NO)=C\[C@@H](C)C(=O)c1ccc(N(C)C)cc1 [TSA, Trichostatin A, reference compound] |  |  | 100.0% | 0.0% | 0.0% | 0.0% | 1431 | 0 | 0 | 0 | 1431 |

— PMC10927086, “Effects of structurally distinct human HDAC6 and HDAC6/HDAC8 inhibitors against S. mansoni larval and adult worm stages” (PLOS Neglected Tropical Diseases, 2024)
